In patent US20020009491A1, “Compositions and methods for enhancing drug delivery across biological membranes and tissues” (priority 2000, published 2002):

Tests used:
[1] = fluorescein alone; cited from earlier work
[2] = cited from earlier work
[3] = Water solubility of taxol phosphate analog / arginine heptamer salt versus taxol
Protocol: This water soluble analog of taxol was assayed for biological activity using a standard cytotoxicity assay.

solubility in water [3] | SMILES | solubility in water (general statement) [1] | water solubility [2]
– | O=C1OC2(c3ccc(O)cc3Oc3cc(O)ccc32)c2ccccc21 [fluorescein] | poorly soluble | –
very limited solubility | CC(=O)O[C@H]1C(=O)[C@@]2(C)[C@H]([C@H](OC(=O)c3ccccc3)[C@]3(O)C[C@H](OC(=O)[C@H](O)[C@@H](NC(=O)c4ccccc4)c4ccccc4)C(C)=C1C3(C)C)[C@]1(OC(C)=O)CO[C@@H]1C[C@@H]2O [taxol, paclitaxel] | – | ≈ 0.25 μg/mL
– | CC(=O)O[C@@]12CO[C@@H]1C[C@H](O)[C@@]1(C)C(=O)[C@H](O)C3=C(C)[C@@H](OC(=O)[C@H](O)[C@@H](NC(=O)OC(C)(C)C)c4ccccc4)C[C@@](O)([C@@H](OC(=O)c4ccccc4)[C@H]21)C3(C)C [taxotere] | – | 6 to 7 µg/mL
